#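 Compound exposure: 48 hours, 5 concentrations, 96-well plates. GI50: concentration for 50% inhibition of growth.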 Active and inactive are the calls of the source. No stated cut-off is given here; in the data, active = GI50 up to about 1.1 µM and inactive = higher. Where a SMILES comes first, the peptide text is derived from it. The star is where a group is joined. Cbz = O=C(OCc1ccccc1)*
# What was measured:
# Assay in all cases: NCI tumour cell line growth inhibition, 48 h
# M14 = tested on: M14
# UACC-257 = tested on: UACC-257
# HCT-15 = tested on: HCT-15
# A549 = tested on: A549
# OVCAR-5 = tested on: OVCAR-5
# HCC 2998 = tested on: HCC 2998
# SW-620 = tested on: SW-620
# UACC-62 = tested on: UACC-62
# OVCAR-3 = tested on: OVCAR-3
# NCI-H23 = tested on: NCI-H23
# HT-29 = tested on: HT-29
# 786-0 = tested on: 786-0
# OVCAR-8 = tested on: OVCAR-8
# SNB-19 = tested on: SNB-19
# MDA-MB-231 = tested on: MDA-MB-231
# MCF7 = tested on: MCF7
# HCT-116 = tested on: HCT-116
# HOP-92 = tested on: HOP-92
# LOX IMVI = tested on: LOX IMVI
# HL-60 = tested on: HL-60
Structure (SMILES),GI50 (M14),GI50 (UACC-257),GI50 (HCT-15) [µM],GI50 (A549),GI50 (OVCAR-5),GI50 (HCC 2998),GI50 (SW-620),GI50 (UACC-62),GI50 (OVCAR-3),GI50 (NCI-H23),GI50 (HT-29),GI50 (786-0),GI50 (OVCAR-8),GI50 (SNB-19),GI50 (MDA-MB-231),GI50 (MCF7),GI50 (HCT-116),GI50 (HOP-92),GI50 (LOX IMVI),GI50 (HL-60)
COc1ccc(-c2nc(O)c3ccccc3n2)c(OC)c1,> 100 µM (inactive),> 100 µM (inactive),> 100,> 100 µM (inactive),> 100 µM (inactive),> 100 µM (inactive),> 100 µM (inactive),> 100 µM (inactive),> 100 µM (inactive),> 100 µM (inactive),> 100 µM (inactive),> 100 µM (inactive),> 100 µM (inactive),> 100 µM (inactive),> 100 µM (inactive),> 100 µM (inactive),> 100 µM (inactive),–,–,–
Brc1ccc2c(-c3csc(-c4c[nH]c5ccccc45)n3)c[nH]c2c1,14.3 µM (inactive),22.8 µM (inactive),–,15.8 µM (inactive),16.1 µM (inactive),15.1 µM (inactive),16.5 µM (inactive),18.2 µM (inactive),13.8 µM (inactive),–,15.6 µM (inactive),17.9 µM (inactive),18.2 µM (inactive),17.8 µM (inactive),16.1 µM (inactive),–,14.7 µM (inactive),15.6 µM (inactive),15.5 µM (inactive),–
C[C@]12O[C@@]3(C)O[C@@]3(C)[C@]3(C)O[C@]3(C)[C@@]1(C)O2,> 100 µM (inactive),> 100 µM (inactive),> 100,> 100 µM (inactive),> 100 µM (inactive),–,–,> 100 µM (inactive),–,> 100 µM (inactive),> 100 µM (inactive),> 100 µM (inactive),> 100 µM (inactive),> 100 µM (inactive),> 100 µM (inactive),> 100 µM (inactive),> 100 µM (inactive),> 100 µM (inactive),> 100 µM (inactive),–
N#CC(c1ccccc1)N(CCOCCOCCN(C(=O)c1cccc2ccccc12)C(C#N)c1ccccc1)C(=O)c1cccc2ccccc12 (stereo not given),> 100 µM (inactive),> 100 µM (inactive),> 100,17.5 µM (inactive),> 100 µM (inactive),> 100 µM (inactive),> 100 µM (inactive),> 100 µM (inactive),> 100 µM (inactive),> 100 µM (inactive),> 100 µM (inactive),> 100 µM (inactive),> 100 µM (inactive),> 100 µM (inactive),> 100 µM (inactive),> 100 µM (inactive),9.55 µM (inactive),–,> 100 µM (inactive),31.7 µM (inactive)
CCCNC(=O)Cn1c(-c2ccccc2)cc2ccccc21,> 100 µM (inactive),> 100 µM (inactive),75,67.1 µM (inactive),> 100 µM (inactive),> 100 µM (inactive),> 100 µM (inactive),26.4 µM (inactive),91.8 µM (inactive),48 µM (inactive),93.8 µM (inactive),54 µM (inactive),> 100 µM (inactive),> 100 µM (inactive),32.7 µM (inactive),37.5 µM (inactive),24.2 µM (inactive),–,> 100 µM (inactive),> 100 µM (inactive)
Cc1cc(N(C)c2ccccc2)nc(N(C)c2ccccc2)n1,41.3 µM (inactive),25.4 µM (inactive),32.1,27.5 µM (inactive),21.2 µM (inactive),36.9 µM (inactive),43.1 µM (inactive),28.6 µM (inactive),33 µM (inactive),36.7 µM (inactive),17.9 µM (inactive),41.3 µM (inactive),33 µM (inactive),88.1 µM (inactive),33.2 µM (inactive),33.7 µM (inactive),19.6 µM (inactive),–,13.3 µM (inactive),37.8 µM (inactive)
C#CCN(C(=O)C(F)(F)F)C(/C=C\C(=O)OC)(C(=O)OCC)C(=O)OCC,> 100 µM (inactive),–,> 100,> 100 µM (inactive),> 100 µM (inactive),> 100 µM (inactive),> 100 µM (inactive),> 100 µM (inactive),> 100 µM (inactive),> 100 µM (inactive),> 100 µM (inactive),> 100 µM (inactive),> 100 µM (inactive),> 100 µM (inactive),> 100 µM (inactive),> 100 µM (inactive),–,–,> 100 µM (inactive),> 100 µM (inactive)
COc1ccc(N[S+]([O-])c2cccc(C)c2)cc1 (stereo not given),> 100 µM (inactive),> 100 µM (inactive),5.21,29.3 µM (inactive),> 100 µM (inactive),3.88 µM (inactive),57.5 µM (inactive),–,> 100 µM (inactive),> 100 µM (inactive),92.9 µM (inactive),> 100 µM (inactive),52.1 µM (inactive),> 100 µM (inactive),48.5 µM (inactive),75.5 µM (inactive),32.7 µM (inactive),–,17.3 µM (inactive),25.7 µM (inactive)
CCOC(=O)/C(=C\n1c(=O)sc2ccccc21)C(=O)c1ccccc1,> 100 µM (inactive),> 100 µM (inactive),> 100,> 100 µM (inactive),> 100 µM (inactive),> 100 µM (inactive),> 100 µM (inactive),> 100 µM (inactive),–,> 100 µM (inactive),> 100 µM (inactive),> 100 µM (inactive),> 100 µM (inactive),–,63 µM (inactive),> 100 µM (inactive),> 100 µM (inactive),–,> 100 µM (inactive),33.5 µM (inactive)
Cn1c(N(CCO)CCO)cnc1[N+](=O)[O-],> 100 µM (inactive),> 100 µM (inactive),> 100,> 100 µM (inactive),> 100 µM (inactive),–,> 100 µM (inactive),> 100 µM (inactive),> 100 µM (inactive),> 100 µM (inactive),> 100 µM (inactive),> 100 µM (inactive),> 100 µM (inactive),> 100 µM (inactive),> 100 µM (inactive),> 100 µM (inactive),> 100 µM (inactive),> 100 µM (inactive),> 100 µM (inactive),> 100 µM (inactive)
COC(=O)Cc1cc(O)c2c(c1O)C(=O)c1ccccc1C2=O,> 100 µM (inactive),> 100 µM (inactive),> 100,> 100 µM (inactive),> 100 µM (inactive),> 100 µM (inactive),> 100 µM (inactive),> 100 µM (inactive),> 71.9 µM (inactive),> 56 µM (inactive),> 46.5 µM (inactive),21.5 µM (inactive),> 100 µM (inactive),38.5 µM (inactive),26.5 µM (inactive),–,> 71 µM (inactive),16.1 µM (inactive),99.1 µM (inactive),> 94.6 µM (inactive)
[O-][S+](CC1(O)CCCCC1)c1ccccc1 (stereo not given),> 100 µM (inactive),> 100 µM (inactive),> 100,> 100 µM (inactive),> 100 µM (inactive),> 100 µM (inactive),> 100 µM (inactive),> 100 µM (inactive),–,> 100 µM (inactive),> 100 µM (inactive),> 100 µM (inactive),> 100 µM (inactive),> 100 µM (inactive),> 100 µM (inactive),> 100 µM (inactive),> 100 µM (inactive),–,> 100 µM (inactive),> 100 µM (inactive)
CCC1(CC)C(=O)N(C(=O)c2ccccc2)N(C(=O)c2ccc(Cl)cc2)C1=O,> 75 µM (inactive),> 75 µM (inactive),72.3,> 75 µM (inactive),> 75 µM (inactive),> 75 µM (inactive),36.2 µM (inactive),> 75 µM (inactive),> 75 µM (inactive),> 75 µM (inactive),58.6 µM (inactive),> 75 µM (inactive),> 75 µM (inactive),> 75 µM (inactive),> 75 µM (inactive),> 75 µM (inactive),43.9 µM (inactive),–,3.35 µM (inactive),22 µM (inactive)
OC(CCNCc1ccccc1)c1ccc2ccccc2c1 (stereo not given),36.1 µM (inactive),18 µM (inactive),20.5,19 µM (inactive),30.7 µM (inactive),36.2 µM (inactive),19.7 µM (inactive),19.3 µM (inactive),13.3 µM (inactive),30 µM (inactive),22.9 µM (inactive),20.1 µM (inactive),23.3 µM (inactive),23.7 µM (inactive),17.4 µM (inactive),24.9 µM (inactive),22.4 µM (inactive),–,13.5 µM (inactive),19.5 µM (inactive)
CCOC(=O)CCC(NC(=O)C(CC(=O)OC)NC(=O)OCc1ccccc1)C(=O)NC(CC(=O)OC)C(=O)NC(CCC(=O)OCC)C(=O)NC(CC(=O)OC)C(=O)NC(CCC(=O)OCC)C(=O)NC(CC(=O)OCC)C(=O)OCC (stereo not given) (Cbz-D(OMe)E(OEt)D(OMe)E(OEt)D(OMe)E(OEt)D(OEt)-OEt; configuration not given here),–,> 100 µM (inactive),> 100,> 100 µM (inactive),> 100 µM (inactive),> 100 µM (inactive),> 100 µM (inactive),> 100 µM (inactive),> 100 µM (inactive),> 100 µM (inactive),> 100 µM (inactive),> 100 µM (inactive),> 100 µM (inactive),> 100 µM (inactive),> 100 µM (inactive),> 100 µM (inactive),> 100 µM (inactive),–,> 100 µM (inactive),> 100 µM (inactive)

# Source: ChEMBL document CHEMBL1201862, “PubChem BioAssay data set” (2004)
